For the first experiment, the system named is Escherichia coli (ATCC25922) or Staphylococcus aureus (ATCC25923). The experiment is described as follows: Antibacterial MIC, microdilution method in Mueller-Hinton medium. To be noted: Escherichia coli, 18 h, MIC in E. coli or S. aureus; two-fold serial dilutions 64 to 0.5 μg/ml in duplicate; 18 hours of incubation at 35° C.; read-out: Potency (MIC). It is filed as cell-based. A digest of the protocol:
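Read after 18 h incubation at 35° C, MIC is the lowest compound level that blocked growth. Compounds were tested in duplicate over 64–0.5 μg/ml two-fold dilutions using Mueller-Hinton microdilution per NCCLS standard.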
With `Cl.NC(=O)c1ccc(Nc2nc(N3C[C@H](N)C[C@H](N)C3)nc(N3C[C@H](N)C[C@H](N)C3)n2)cc1` [N-(4-carbamoyl-phenyl)-4,6-Bis-((3R,5S)-3,5-diamino-piperidin-1-yl)-[1,3,5]triazine-2-amine], the MIC (in general, the lowest concentration that inhibits growth of the organism) was > 64 mg/L. With `CSc1nnc(Nc2nc(N3C[C@H](N)C[C@H](N)C3)nc(N3C[C@H](N)C[C@H](N)C3)n2)s1.Cl` [N-(5-methylsulfanyl-[1,3,4]thiadiazol-2-yl)-4,6-Bis-((3R,5S)-3,5-diamino-piperidin-1-yl)-[1,3,5]triazine-2-amine], the MIC was > 64 mg/L. On the same count and under the same terms, with `N[C@@H]1C[C@H](N)CN(c2nc(Nc3ccc(NC(=O)c4cnc5ccccc5n4)c(O)c3)nc(N3C[C@H](N)C[C@H](N)C3)n2)C1` [N-{3-hydroxy-4-[(quinoxaline-2-carbonyl)-amino]-phenyl}-4,6-Bis-((3R,5S)-3,5-diamino-piperidin-1-yl)-[1,3,5]triazine-2-amine] the figure was < 64 mg/L; with `CC(=O)Nc1ccc(Nc2nc(N3C[C@H](N)C[C@H](N)C3)nc(N3C[C@H](N)C[C@H](N)C3)n2)cc1` [drawing 178, N-(4-acetylamino-phenyl)-4,6-Bis-((3R,5S)-3,5-diamino-piperidin-1-yl)-[1,3,5]triazine-2-amine], > 64 mg/L; with `Cl.N[C@@H]1C[C@@H](N)CN(c2nc(N3CCC4CCCCC4C3)nc(N3C[C@H](N)C[C@H](N)C3)n2)C1` (stereo partly drawn) [2,4-Biss-((3R,5S)-3,5-diamino-piperidin-1-yl)-6-(4-p-tolyl-piperazin-1-yl)-[1,3,5]triazine], > 64 mg/L.

Consider `Cl.N[C@@H]1C[C@H](N)CN(c2nc(N3C[C@H](N)C[C@H](N)C3)nc(N(c3ccccc3)c3ccc(O)cc3)n2)C1` [4-{[4,6-Bis-((3R,5S)-3,5-diamino-piperidin-1-yl)-[1,3,5]triazin-2-yl]-phenyl-amino}-phenyl], for which the minimum inhibitory concentration (MIC) was > 64 mg/L. Same read-out and setting: with `CC1=NN(c2ccc(Nc3nc(N4C[C@H](N)C[C@H](N)C4)nc(N4C[C@H](N)C[C@H](N)C4)n3)cc2)C(=O)C1CCO` (stereo partly drawn) [N-{4-[4-(2-hydroxy-ethyl)-3-methyl-5-oxo-4,5-dihydro-pyrazol-1-yl]-phenyl}-4,6-Bis-((3R,5S)-3,5-diamino-piperidin-1-yl)-[1,3,5]triazine-2-amine] the figure was > 64 mg/L; with `Cl.O=[N+]([O-])c1ccc(S(=O)(=O)c2ccc(Nc3nc(N4CCCCC4)nc(N4CCCCC4)n3)cc2)cc1` [N-[4-((2,4-dimethoxy-benzoylamino)-3-hydroxy-phenyl]-4,6-Bis-((3R,5S)-3,5-diamino-piperidin-1-yl)-[1,3,5]triazine-2-amine], < 16 mg/L; with `N[C@@H]1C[C@H](N)CN(c2nc(NC3CCNC3)nc(N3C[C@H](N)C[C@H](N)C3)n2)C1` (stereo partly drawn) [N-pyrrolidin-3-yl-4,6-Bis-((#r,5S)-3,5-diamino-piperidin-1-yl)-[1,3,5]triazine-2-amine], > 64 mg/L.

The experiment is the same for the next values; noted with them: Escherichia coli, 18 h, read-out: Potency (MIC).
In the case of `N[C@@H]1C[C@H](N)CN(c2nc(Nc3ccc(C(=O)Nc4ccccc4F)c(O)c3)nc(N3C[C@H](N)C[C@H](N)C3)n2)C1` [N-[4-(2-fluoro-phenylcarbamoyl)-3-hydroxy-phenyl]-4,6-Bis-((3R,5S)-3,5-diamino-piperidin-1-yl)-[1,3,5]triazine-2-amine], the minimal inhibitory concentration (MIC) was < 64 mg/L. Same read-out and setting: with `NC[C@@H]1C[C@@H](O)CN1c1nc(Nc2ccc(C(=O)CC(=O)Nc3ccc(F)c(F)c3)cc2)nc(N2C[C@H](N)C[C@H](N)C2)n1` [3-{4-[4-((2S,4R)-2-Aminomethyl-4-hydroxy-pyrrolidin-1-yl)-6-((3R,5S)-3,5-diamino-piperidin-1-yl)-[1,3,5]triazin-2-ylamino]-phenyl}-N-(3,4-difluoro-phenyl)-3-oxo-propionamide] the figure was < 64 mg/L; with `Cc1ccc(C(=O)Nc2cccc(Nc3nc(N4C[C@H](N)C[C@H](N)C4)nc(N4C[C@H](N)C[C@H](N)C4)n3)c2)c(O)c1` [N-[3-(2-hydroxy-4-methyl-benzoylamino)-phenyl]-4,6-Bis-((3R,5S)-3,5-diamino-piperidin-1-yl)-[1,3,5]triazine-2-amine], < 64 mg/L; with `COc1ccc(Nc2nc(N3C[C@H](N)C[C@H](N)C3)nc(N3C[C@H](N)C[C@H](N)C3)n2)c([N+](=O)[O-])c1` [N-(4-methoxy-2-nitro-phenyl)-4,6-Bis-((3R,5S)-3,5-diamino-piperidin-1-yl)-[1,3,5]triazine-2-amine], > 64 mg/L. The same measure, in the same setting: to `NC[C@@H]1C[C@@H](O)CN1c1nc(Nc2ccc(C(=O)CC(=O)Nc3ccccc3Cl)cc2)nc(N2C[C@H](N)C[C@H](N)C2)n1` [3-{4-[4-((2S,4R)-2-Aminomethyl-4-hydroxy-pyrrolidin-1-yl)-6-((3R,5S)-3,5-diamino-piperidin-1-yl)-[1,3,5]triazin-2-ylamino]-phenyl}-N-(2-chloro-phenyl)-3-oxo-propionamide] belongs < 64 mg/L.

In the case of `NCCN(CCN)c1nc(Nc2ccc(NC(=O)c3ccc4ccccc4c3O)cc2)nc(N2C[C@H](N)C[C@H](N)C2)n1` [1-Hydroxy-naphthalene-2-carboxylic acid {4-[4-[bis-(2-amino-ethyl)-amino]-6-((3R,5S)-3,5-diamino-piperidin-1-yl)-[1,3,5]triazin-2-ylamino]-phenyl}-amide], the minimal inhibitory concentration (MIC) is < 16 mg/L. The same measure, in the same setting: to `N[C@@H]1C[C@H](N)CN(c2nc(Nc3ccc([N+](=O)[O-])cc3)nc(N3C[C@H](N)C[C@H](N)C3)n2)C1` [N-(4-nitro-phenyl)-4,6-Bis-((3R,5S)-3,5-diamino-piperidin-1-yl)-[1,3,5]triazine-2-amine] belongs < 64 mg/L. On the same count and under the same terms, to `NC[C@H]1[C@@H](O)CCN1c1nc(Nc2ccc(C(=O)CC(=O)Nc3ccccc3Cl)cc2)nc(N2C[C@H](N)C[C@H](N)C2)n1` [3-{4-[4-((2S,3S)-2-Aminomethyl-3-hydroxy-pyrrolidin-1-yl)-6-((3R,5S)-3,5-diamino-piperidin-1-yl)-[1,3,5]triazin-2-ylamino]-phenyl}-N-(2-chloro-phenyl)-3-oxo-propionamide] belongs < 64 mg/L. On the same count and under the same terms, to `Cc1ccc(S(=O)(=O)N(Cc2ccccc2)c2ccc(Nc3nc(NC4CCCNC4)nc(N4C[C@H](N)C[C@H](N)C4)n3)cc2O)cc1` (stereo partly drawn) [N-Benzyl-N-{4-[4-((3R,5S)-3,5-diamino-piperidin-1-yl)-6-(piperidin-3-ylamino)-[1,3,5]triazin-2-ylamino]-2-hydroxy-phenyl}-4-methyl-benzenesulfonamide] belongs < 64 mg/L; to `N[C@@H]1C[C@H](N)CN(c2nc(Nc3ccc(NC(=O)c4ccc(C(F)(F)F)nc4O)cc3)nc(N3C[C@H](N)C[C@H](N)C3)n2)C1` [N-{4-[(2-hydroxy-6-trifluoromethyl-pyridine-3-carbonyl)-amino]-phenyl}-4,6-Bis-((3R,5S)-3,5-diamino-piperidin-1-yl)-[1,3,5]triazine-2-amine], < 16 mg/L; to `COc1cc(NC(=O)CC(=O)c2ccc(Nc3nc(N4C[C@H](N)C[C@H](N)C4)nc(N4C[C@H](N)C[C@H](N)C4)n3)cc2)c(OC)cc1Cl` [N-{4-[2-(4-chloro-2,5-dimethoxy-phenylcarbamoyl)-acetyl]-phenyl}-4,6-Bis-((3R,5S)-3,5-diamino-piperidin-1-yl)-[1,3,5]triazine-2-amine], < 16 mg/L.

`CSc1ccc(CNc2nc(N3C[C@H](N)C[C@H](N)C3)nc(N3C[C@H](N)C[C@H](N)C3)n2)cc1` [N-(4-methylsulfanyl-benzyl)-4,6-Bis-((3R,5S)-3,5-diamino-piperidin-1-yl)-[1,3,5]triazine-2-amine]: the minimal inhibitory concentration (MIC) is < 64 mg/L. For the compound `N[C@@H]1C[C@H](N)CN(c2nc(Nc3ccc(C(=O)Nc4ccc(SC(F)(F)F)cc4)c(O)c3)nc(N3C[C@H](N)C[C@H](N)C3)n2)C1` [N-[3-hydroxy-4-(4-trifluoromethylsulfanyl-phenylcarbamoyl)-phenyl]-4,6-Bis-((3R,5S)-3,5-diamino-piperidin-1-yl)-[1,3,5]triazine-2-amine], the minimum inhibitory concentration (MIC) was < 64 mg/L.

As for `N[C@@H]1C[C@H](N)CN(c2nc(Nc3ccc(S(=O)(=O)Nc4ccc5cn[nH]c5c4)cc3)nc(N3C[C@H](O)C[C@@H](O)C3)n2)C1` [4-[4-((3S,5R)-3,5-Diamino-piperidin-1-yl)-6-((3R,5R)-3,5-dihydroxy-piperidin-1-yl)-[1,3,5]triazin-2-ylamino]-N-(1H-indazol-6-yl)-benzenesulfonamide], the minimum inhibitory concentration (MIC) is > 64 mg/L. For `NC[C@@H]1C[C@@H](O)CN1c1nc(Nc2ccc(C(=O)CC(=O)Nc3ccc4c(c3)OC(F)(F)O4)cc2)nc(N2C[C@H](N)C[C@H](N)C2)n1` [3-{4-[4-((2S,4R)-2-Aminomethyl-4-hydroxy-pyrrolidin-1-yl)-6-((3R,5S)-3,5-diamino-piperidin-1-yl)-[1,3,5]triazin-2-ylamino]-phenyl}-N-(2,2-difluoro-benzo[1,3]dioxol-5-yl)-3-oxo-propionamide], the MIC was < 16 mg/L. Still for that read-out and setting: with `NC[C@@H]1CN(c2nc(Nc3ccc(NC(=O)c4ccc5ccccc5c4O)cc3)nc(N3C[C@H](N)C[C@H](N)C3)n2)CC[C@@H]1O` [1-Hydroxy-naphthalene-2-carboxylic acid {4-[4-((3R,4S)-3-aminomethyl-4-hydroxy-piperidin-1-yl)-6-((3R,5S)-3,5-diamino-piperidin-1-yl)-[1,3,5]triazin-2-ylamino]-phenyl}-amide] the figure was < 16 mg/L.

The experiment is the same for the next values; noted with them: MIC in E. coli or S. aureus; two-fold serial dilutions 64 to 0.5 μg/ml in duplicate; 18 hours of incubation at 35° C.
As to `NC[C@@H]1C[C@@H](O)CN1c1nc(Nc2ccc(C(=O)CC(=O)Nc3ccc(SC(F)(F)F)cc3)cc2)nc(N2C[C@H](N)C[C@H](N)C2)n1` [3-{4-[4-((2S,4RE)-2-Aminomethyl-4-hydroxy-pyrrolidin-1-yl)-6-((3R,5S)-3,5-diamino-piperidin-1-yl)-[1,3,5]triazin-2-ylamino]-phenyl}-3-oxo-N-(4-trifluoromethylsulfanyl-phenyl)-propionamide], the “Potency (MIC)” value is on record as “++ (++ means MIC<16 μg/ml in E. coli or S. aureus)”.

Values taken from patent US7223759B2, “Antibacterial 3,5-diaminopiperidine-substituted aromatic and heteroaromatic compounds” (Anadys Pharmaceuticals, Inc., priority 2003, dated 2007).
